# Laboratory results from patent US4701406A, “Assay for the detection of epigenetic toxic (non-genotoxic) substances” (priority 1984, dated 1987).
# Where two headings read alike, the source gives them in different places.
# How the values were obtained:
# skin = details: cited from earlier work
# [1] = Table I; recognized by U.S. Department of Health and Human Services; cited from earlier work
# [2] = tested on: cytoskeletal elements (microtubules and microfilaments) of Swiss 3T3 cells
# [3] = tested on: cytoskeletal elements (microtubules) of quiescent 3T3 cells
# tubulin = details: in vitro; cited from earlier work
# genetic material = details: presently used assays; cited from earlier work
structure (smiles),measurement,setting,value
"O=[N+]([O-])c1ccc(F)c([N+](=O)[O-])c1 [FDNB, fluorodinitrobenzene]",allergic contact dermatitis,skin,severe allergic contact dermatitis
"O=S(=O)([O-])[O-].[Co+2] [Co(II) as CoSO4, CoSO4]",Health Hazardous Activity (carcinogen / promoter),[1],Carcinogen
same,Cytoskeletal Perturbation,"[2]; 4.0 × 10^-4 M, 17.0 hrs, FIG. 1f",positive
"[K+].[K+].[O]=[Cr](=[O])([O-])[O][Cr](=[O])(=[O])[O-] [Cr(VI) as K2 Cr2 O7, K2 Cr2 O7]",Cytoskeletal Perturbation,[2],positive
same,Cytoskeletal Disruption,"[3]; 1.2 × 10^-3 M, 3 hours, FIG. 2c",positive
CC(=O)O[C@H]1C(=O)[C@@]2(C)[C@H]([C@H](OC(=O)c3ccccc3)[C@]3(O)C[C@H](OC(=O)[C@H](O)[C@@H](NC(=O)c4ccccc4)c4ccccc4)C(C)=C1C3(C)C)[C@]1(OC(C)=O)CO[C@@H]1C[C@@H]2O [taxol],tubulin polymerization,tubulin,promote tubulin polymerization in vitro
same,"effectiveness, taxol introduced prior to vs simultaneously with the epigenetic substances",[3]; prior to or simultaneous treatment,no discernible difference in effectiveness
same,Cytoskeletal Disruption,"[3]; taxol alone, 12 × 10^-6 M, 2 hours, FIG. 2h",negative
"O=[N+]([O-])c1ccc(Cl)c([N+](=O)[O-])c1 [CDNB, 1-Chloro-2,4-dinitro-benzene]",identification by genotoxicity / mutagenicity assays,genetic material,consistently failed to be identified
same,allergic contact dermatitis,skin,severe allergic contact dermatitis
same,Cytoskeletal Perturbation,"[2]; 5.0 × 10^-6 M, 2.0 hrs, FIG. 1g",positive
same,Cytoskeletal Disruption,"[3]; 5 × 10^-6 M, 2 hours, FIG. 2b",positive
"O=S(=O)([O-])[O-].[Ni+2] [Ni(II) as NiSO4, NiSO4]",Cytoskeletal Perturbation,[2],positive
same,Cytoskeletal Disruption,"[3]; 1.5 × 10^-3 M, 3 hours, FIG. 2d",positive
"O=[As][O-].[Na+] [As(III) as NaAsO2, NaAsO2]",Cytoskeletal Perturbation,[2],positive
"Nc1ccc(N)cc1 [PPD, P--Phenylene-diamine]",identification by genotoxicity / mutagenicity assays,genetic material,consistently failed to be identified
same,skin sensitization,skin; human as well as animal studies,potent skin sensitizers
same,Health Hazardous Activity (potent skin sensitizer),skin; identified by skin patch test,sensitizer
same,Cytoskeletal Perturbation,"[2]; 5.0 × 10^-4 M, 3.5 hrs, FIG. 1h",positive
"O=S(=O)([O-])[O-].[Cd+2] [Cd(II) as CdSO4, CdSO4]",Cytoskeletal Perturbation,"[2]; 2.5 × 10^-5 M, 3.0 hrs, FIG. 1c",positive
